Measurements published in PubChem BioAssay AID288 (DTP/NCI, 2004).
Inconclusive results are not listed.

Tested on: BDF1 mice, M5076 sarcoma s.c., survival/tumor T/C
Assay: NCI In Vivo Anticancer Drug Screen. Data for tumor model Sarcoma M5076 (subcutaneous) in B6D2F1 (BDF1) mice
Procedure: The antitumor activity of compounds was measured in mice bearing transplantable tumors. Survival or tumor size were measured and the results are expressed as the measurement made in the treated group (T) divided by the measurement made in the vehicle treated control group (C). The tumor model used in this assay is Sarcoma M5076 (subcutaneous) in B6D2F1 (BDF1) mice

## CC(=O)O[C@H]1C(=O)[C@@]2(C)[C@H]([C@H](OC(=O)c3ccccc3)[C@]3(O)C[C@H](OC(=O)[C@H](O)[C@@H](NC(=O)c4ccccc4)c4ccccc4)C(C)=C1C3(C)C)[C@]1(OC(C)=O)CO[C@@H]1C[C@@H]2O
endpoint: mean tumor weight, dose: 10.0 mg/kg/injection, schedule: Q02DX011 (ip), vehicle: Klucel (hydroxypropylcellulose) (HPC), higher = larger tumour
  T/C: 103 % of control
endpoint: mean tumor weight, dose: 20.0 mg/kg/injection, schedule: Q02DX011 (ip), vehicle: Klucel (hydroxypropylcellulose) (HPC), higher = larger tumour
  T/C: 78 % of control
endpoint: mean tumor weight, dose: 40.0 mg/kg/injection, schedule: Q02DX011 (ip), vehicle: Klucel (hydroxypropylcellulose) (HPC), higher = larger tumour
  T/C: 57 % of control
endpoint: median survival time, dose: 1.32 mg/kg/injection, schedule: Q02DX011 (ip), vehicle: Klucel (hydroxypropylcellulose) (HPC), higher = longer survival
  T/C: 108 % of control
endpoint: median survival time, dose: 1.32 mg/kg/injection, schedule: Q02DX011 (ip), vehicle: other, higher = longer survival
  T/C: 115 % of control
endpoint: median survival time, dose: 1.98 mg/kg/injection, schedule: Q02DX011 (ip), vehicle: Klucel (hydroxypropylcellulose) (HPC), higher = longer survival
  T/C: 111 % of control
endpoint: median survival time, dose: 1.98 mg/kg/injection, schedule: Q02DX011 (ip), vehicle: other, higher = longer survival
  T/C: 109 % of control
endpoint: median survival time, dose: 2.5 mg/kg/injection, schedule: Q04DX003 (ip), vehicle: Klucel (hydroxypropylcellulose) (HPC), higher = longer survival
  T/C: 85 % of control
endpoint: median survival time, dose: 2.96 mg/kg/injection, schedule: Q02DX011 (ip), vehicle: Klucel (hydroxypropylcellulose) (HPC), higher = longer survival
  T/C: 103 % of control
endpoint: median survival time, dose: 4.44 mg/kg/injection, schedule: Q02DX011 (ip), vehicle: Klucel (hydroxypropylcellulose) (HPC), higher = longer survival
  T/C: 111 % of control
endpoint: median survival time, dose: 4.44 mg/kg/injection, schedule: Q02DX011 (ip), vehicle: other, higher = longer survival
  T/C: 115 % of control
endpoint: median survival time, dose: 5.0 mg/kg/injection, schedule: Q04DX003 (ip), vehicle: Klucel (hydroxypropylcellulose) (HPC), higher = longer survival
  T/C: 103 % of control
endpoint: median survival time, dose: 6.67 mg/kg/injection, schedule: Q02DX011 (ip), vehicle: Klucel (hydroxypropylcellulose) (HPC), higher = longer survival
  T/C: 119 % of control
endpoint: median survival time, dose: 6.67 mg/kg/injection, schedule: Q02DX011 (ip), vehicle: other, higher = longer survival
  T/C: 112 % of control
endpoint: median survival time, dose: 10.0 mg/kg/injection, schedule: Q02DX011 (ip), vehicle: Klucel (hydroxypropylcellulose) (HPC), higher = longer survival
  T/C: 110 % of control
endpoint: median survival time, dose: 10.0 mg/kg/injection, schedule: Q02DX011 (ip), vehicle: other, higher = longer survival
  T/C: 106 % of control
endpoint: median survival time, dose: 10.0 mg/kg/injection, schedule: Q04DX003 (ip), vehicle: Klucel (hydroxypropylcellulose) (HPC), higher = longer survival
  T/C: 109 % of control
endpoint: median survival time, dose: 15.0 mg/kg/injection, schedule: Q02DX011 (ip), vehicle: Klucel (hydroxypropylcellulose) (HPC), higher = longer survival
  T/C: 91 % of control
endpoint: median survival time, dose: 15.0 mg/kg/injection, schedule: Q02DX011 (ip), vehicle: other, higher = longer survival
  T/C: 107 % of control
endpoint: median survival time, dose: 22.5 mg/kg/injection, schedule: Q02DX011 (ip), vehicle: other, higher = longer survival
  T/C: 108 % of control
endpoint: median tumor weight (est.), dose: 1.32 mg/kg/injection, schedule: Q02DX011 (ip), vehicle: Klucel (hydroxypropylcellulose) (HPC), higher = larger tumour
  T/C: 83 % of control
endpoint: median tumor weight (est.), dose: 1.32 mg/kg/injection, schedule: Q02DX011 (ip), vehicle: other, higher = larger tumour
  T/C: 106 % of control
endpoint: median tumor weight (est.), dose: 1.98 mg/kg/injection, schedule: Q02DX011 (ip), vehicle: Klucel (hydroxypropylcellulose) (HPC), higher = larger tumour
  T/C: 73 % of control
endpoint: median tumor weight (est.), dose: 1.98 mg/kg/injection, schedule: Q02DX011 (ip), vehicle: other, higher = larger tumour
  T/C: 96 % of control
endpoint: median tumor weight (est.), dose: 2.96 mg/kg/injection, schedule: Q02DX011 (ip), vehicle: Klucel (hydroxypropylcellulose) (HPC), higher = larger tumour
  T/C: 87 % of control
endpoint: median tumor weight (est.), dose: 2.96 mg/kg/injection, schedule: Q02DX011 (ip), vehicle: other, higher = larger tumour
  T/C: 87 % of control
endpoint: median tumor weight (est.), dose: 4.44 mg/kg/injection, schedule: Q02DX011 (ip), vehicle: Klucel (hydroxypropylcellulose) (HPC), higher = larger tumour
  T/C: 62 % of control
endpoint: median tumor weight (est.), dose: 4.44 mg/kg/injection, schedule: Q02DX011 (ip), vehicle: other, higher = larger tumour
  T/C: 76 % of control
endpoint: median tumor weight (est.), dose: 6.67 mg/kg/injection, schedule: Q02DX011 (ip), vehicle: Klucel (hydroxypropylcellulose) (HPC), higher = larger tumour
  T/C: 58 % of control
endpoint: median tumor weight (est.), dose: 6.67 mg/kg/injection, schedule: Q02DX011 (ip), vehicle: other, higher = larger tumour
  T/C: 79 % of control
endpoint: median tumor weight (est.), dose: 10.0 mg/kg/injection, schedule: Q02DX011 (ip), vehicle: other, higher = larger tumour
  T/C: 63 % of control
endpoint: median tumor weight (est.), dose: 15.0 mg/kg/injection, schedule: Q02DX011 (ip), vehicle: Klucel (hydroxypropylcellulose) (HPC), higher = larger tumour
  T/C: 73 % of control
endpoint: median tumor weight (est.), dose: 15.0 mg/kg/injection, schedule: Q02DX011 (ip), vehicle: other, higher = larger tumour
  T/C: 59 % of control
endpoint: median tumor weight (est.), dose: 20.0 mg/kg/injection, schedule: Q02DX011 (ip), vehicle: Klucel (hydroxypropylcellulose) (HPC), higher = larger tumour
  T/C: 63 % of control
endpoint: median tumor weight (est.), dose: 22.5 mg/kg/injection, schedule: Q02DX011 (ip), vehicle: other, higher = larger tumour
  T/C: 38 % of control
endpoint: median tumor weight (est.), dose: 40.0 mg/kg/injection, schedule: Q02DX011 (ip), vehicle: Klucel (hydroxypropylcellulose) (HPC), higher = larger tumour
  T/C: 31 % of control
